ChEMBL document CHEMBL1148880, “Development of piperazine-tethered heterodimers as potent antimalarials against chloroquine-resistant P. falciparum strains. Synthesis and molecular modeling” (Bioorg Med Chem Lett, 2007)

Key:
Assay type in all cases: functional, organism-based
Plasmodium falciparum [1] = test: Antiplasmodial activity against chloroquine-resistant Plasmodium falciparum K1
Plasmodium falciparum [2] = test: Antiplasmodial activity against chloroquine-resistant Plasmodium falciparum W2
Plasmodium falciparum [3] = test: Antiplasmodial activity against chloroquine-sensitive Plasmodium falciparum D10
Plasmodium falciparum [4] = test: Antiplasmodial activity against chloroquine-sensitive Plasmodium falciparum 3D7

Structure (SMILES) | IC50 (Plasmodium falciparum [1]) [µM] | IC50 (Plasmodium falciparum [2]) [µM] | IC50 (Plasmodium falciparum [3]) [µM] | IC50 (Plasmodium falciparum [4]) [µM]
CCN(CC)CCCC(C)NC1CC=Nc2cc(Cl)ccc21 (stereo not drawn) | 260 | 280 | 22 | 10
OC(c1ccc(CNCCCN2CCN(CCC/N=c3\cc[nH]c4cc(Cl)ccc34)CC2)cc1)c1cccc(Cl)c1 (stereo not drawn) | 135 | 269 | 145 | 28
Clc1ccc2/c(=N/CCCN3CCN(CCCNc4nc5ccccc5[nH]4)CC3)cc[nH]c2c1 |  | 535 | 407 | 
Clc1cccc(C(NCCCN2CCN(CCC/N=c3\cc[nH]c4cc(Cl)ccc34)CC2)c2ccc(CN3CCCC3)cc2)c1 (stereo not drawn) |  | 495 | 663 | 
O=C(NCCCN1CCN(CCC/N=c2\cc[nH]c3cc(Cl)ccc23)CC1)C(c1cccc(Cl)c1)n1ccnc1 (stereo not drawn) | 200 | 540 | 221 | 40
Clc1ccc2/c(=N/CCCN3CCN(CCCNCC4N=CC=N4)CC3)cc[nH]c2c1 |  | 1440 | 1610 | 
CS(=O)(=O)OC(c1ccc(CNCCCN2CCN(CCC/N=c3\cc[nH]c4cc(Cl)ccc34)CC2)cc1)c1cccc(Cl)c1 (stereo not drawn) | 447 | 98 | 110 | 7.8
O=C(c1ccc(CNCCCN2CCN(CCC/N=c3\cc[nH]c4cc(Cl)ccc34)CC2)cc1)c1cccc(Cl)c1 | 16 | 33 | 26 | 1.6
Clc1ccc2/c(=N/CCCN3CCN(CCCNCc4ccc(CN5CCCC5)cc4)CC3)cc[nH]c2c1 |  | 207 | 260 | 
